Data set [1] addresses T1, GR (Homo sapiens, UniProt P04150).
T1 construct: expressed in transfected cells; host or cells: CHO-K1
T1 sequence (P04150 1-777): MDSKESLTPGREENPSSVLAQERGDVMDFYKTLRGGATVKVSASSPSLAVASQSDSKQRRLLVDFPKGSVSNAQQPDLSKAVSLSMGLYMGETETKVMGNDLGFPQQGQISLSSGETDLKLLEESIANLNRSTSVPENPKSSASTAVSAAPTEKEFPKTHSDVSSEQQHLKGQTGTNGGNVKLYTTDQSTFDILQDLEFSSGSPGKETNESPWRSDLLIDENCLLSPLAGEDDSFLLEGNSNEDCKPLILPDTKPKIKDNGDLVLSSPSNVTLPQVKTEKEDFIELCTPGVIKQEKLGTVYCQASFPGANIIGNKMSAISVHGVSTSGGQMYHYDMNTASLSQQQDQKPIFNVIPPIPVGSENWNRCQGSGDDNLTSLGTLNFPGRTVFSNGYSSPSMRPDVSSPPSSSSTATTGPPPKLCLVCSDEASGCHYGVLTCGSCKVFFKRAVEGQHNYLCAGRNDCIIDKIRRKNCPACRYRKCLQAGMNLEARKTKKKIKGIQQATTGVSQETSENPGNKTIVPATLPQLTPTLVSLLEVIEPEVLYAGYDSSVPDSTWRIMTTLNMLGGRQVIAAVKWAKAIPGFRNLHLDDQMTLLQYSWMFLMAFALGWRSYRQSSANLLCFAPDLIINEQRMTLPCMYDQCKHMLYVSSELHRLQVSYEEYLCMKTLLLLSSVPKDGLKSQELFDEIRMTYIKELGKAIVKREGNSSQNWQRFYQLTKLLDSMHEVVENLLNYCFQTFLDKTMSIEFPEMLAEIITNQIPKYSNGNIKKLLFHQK
Briefly: In Vitro GR Luciferase Reporter Assay (antagonist mode, CHO-K1-GR-MMTV-Luc reporter cells). Conditions: antagonist mode, 10 nM Dexamethasone. The class given is cell-based. In a few lines:
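Antagonist mode: compounds (8 serial 1:5 dilutions) added to GR-MMTV-luciferase CHO-K1 reporter cells co-exposed to 10 nM dexamethasone final, in phenol red-free DMEM plus 10% CSS. After roughly 18-24 h at 37° C, OneGlo luminescence read and IC50 calculated.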
In general terms: A reporter such as luciferase makes a cellular process visible.

The target of data set [2] is T2, CYP2C8 (Homo sapiens, UniProt P10632).
T2 construct: Pooled human microsomes were obtained from Sekisui XenoTech, KS; tissue Sekisui XenoTech, KS; host or cells: pooled human liver microsomes
T2 sequence (P10632 1-490): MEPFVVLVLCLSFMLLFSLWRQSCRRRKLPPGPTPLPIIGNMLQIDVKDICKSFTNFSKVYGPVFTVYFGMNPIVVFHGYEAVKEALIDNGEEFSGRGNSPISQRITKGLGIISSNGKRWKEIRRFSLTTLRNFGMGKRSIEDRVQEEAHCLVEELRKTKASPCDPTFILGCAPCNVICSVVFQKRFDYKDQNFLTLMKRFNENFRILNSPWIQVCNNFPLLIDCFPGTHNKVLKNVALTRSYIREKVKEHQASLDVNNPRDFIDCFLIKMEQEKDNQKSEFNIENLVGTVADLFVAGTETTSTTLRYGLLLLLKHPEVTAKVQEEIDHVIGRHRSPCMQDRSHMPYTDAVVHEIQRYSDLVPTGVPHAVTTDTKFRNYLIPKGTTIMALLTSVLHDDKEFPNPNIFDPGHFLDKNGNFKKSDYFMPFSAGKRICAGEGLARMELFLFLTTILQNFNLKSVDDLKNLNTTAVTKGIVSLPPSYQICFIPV
In words: CYP Inhibition Assay (CYP2C8, human liver microsomes, paclitaxel substrate). Format: in vitro ADME. Conditions: pH 7.4; pooled human liver microsomes 0.1 mg/mL, probe substrate paclitaxel. In outline: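 CYP2C8 activity read as 6α-hydroxypaclitaxel formation by LC-MS/MS, with % inhibition versus vehicle control. Reactions ran 5 min at 37° C, pH 7.4 phosphate buffer, 0.1 mg/mL pooled human liver microsomes, 1 mM NADPH, duplicate wells.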

Bounds are passed on as bounds.

What is called IC50 is the concentration needed to halve the response being measured. The low end stands for greater potency in that assay, the high end for weaker potency in that assay. The inhibition is the relative decrease from the control value, in per cent. A high value points to a strong effect. Consider `CC(C)N([C@H]1CCC2=Cc3c(cnn3-c3ccc(F)cc3)C[C@]2(C(=O)c2cc(F)ccn2)C1)S(=O)(=O)c1ccn(C)n1` [Example 241, N-((4aS,6S)-1-(4-fluorophenyl)-4a-(4-fluoropicolinoyl)-4,4a,5,6,7,8-hexahydro-1H-benzo[f]indazol-6-yl)-N-isopropyl-1-methyl-1H-pyrazole-3-sulfonamide], for which the IC50 in data set [1] is at most 100 nM. The inhibition at 5 min in data set [2] was 75 to 90%.

Take `CC(C)N([C@H]1CCC2=Cc3c(cnn3-c3ccc(F)cc3)C[C@]2(C(=O)c2cc(Cl)ccn2)C1)S(=O)(=O)c1ccn(C)n1` [Example 242, N-((4aS,6S)-4a-(4-chloropicolinoyl)-1-(4-fluorophenyl)-4,4a,5,6,7,8-hexahydro-1H-benzo[f]indazol-6-yl)-N-isopropyl-1-methyl-1H-pyrazole-3-sulfonamide]: the IC50 in data set [1] is at most 100 nM. In data set [2], this molecule had an inhibition at 5 min of 75 to 90%.

On to `CCN([C@H]1CCC2=Cc3c(cnn3-c3ccc(F)cc3)C[C@]2(C(=O)c2cc(C(F)(F)F)ccn2)C1)S(=O)(=O)C1CCCC1` [Example 243, N-ethyl-N-((4aS,6S)-1-(4-fluorophenyl)-4a-(4-(trifluoromethyl)picolinoyl)-4,4a,5,6,7,8-hexahydro-1H-benzo[f]indazol-6-yl)cyclopentanesulfonamide], for which the IC50 in data set [1] is at most 100 nM. In addition, the inhibition at 5 min in data set [2] was 50 to 75%.

For the molecule `Cn1ccc(S(=O)(=O)N(CC2CC2)[C@H]2CCC3=Cc4c(cnn4-c4ccc(F)cc4)C[C@]3(C(=O)c3cc(F)ccn3)C2)n1` [Example 244, N-(cyclopropylmethyl)-N-((4aS,6S)-1-(4-fluorophenyl)-4a-(4-fluoropicolinoyl)-4,4a,5,6,7,8-hexahydro-1H-benzo[f]indazol-6-yl)-1-methyl-1H-pyrazole-3-sulfonamide], the IC50 in data set [1] is at most 100 nM. The same molecule came in with an inhibition at 5 min in data set [2] of 75 to 90%.

For the molecule `Cn1ccc(S(=O)(=O)N(CC2CC2)[C@H]2CCC3=Cc4c(cnn4-c4ccc(F)cc4)C[C@]3(C(=O)c3cc(Cl)ccn3)C2)n1` [Example 245, N-((4aS,6S)-4a-(4-chloropicolinoyl)-1-(4-fluorophenyl)-4,4a,5,6,7,8-hexahydro-1H-benzo[f]indazol-6-yl)-N-(cyclopropylmethyl)-1-methyl-1H-pyrazole-3-sulfonamide], the IC50 in data set [1] was at most 100 nM. The molecule further displayed an inhibition at 5 min in data set [2] of 50 to 75%.

In data set [1], `Cn1cc(S(=O)(=O)N(CC(C)(C)O)[C@H]2CCC3=Cc4c(cnn4-c4ccc(F)cc4)C[C@]3(C(=O)c3cc(Cl)ccn3)C2)cn1` [Example 246, N-((4aS,6S)-4a-(4-chloropicolinoyl)-1-(4-fluorophenyl)-4,4a,5,6,7,8-hexahydro-1H-benzo[f]indazol-6-yl)-N-(2-hydroxy-2-methylpropyl)-1-methyl-1H-pyrazole-4-sulfonamide] came in with an IC50 of at most 100 nM. In addition, the inhibition at 5 min in data set [2] fell in the range of 25 to 50%.

On to `O=C(c1cc(C(F)F)ccn1)[C@]12Cc3cnn(-c4ccc(F)cc4)c3C=C1CC[C@H](N(C1CC1)S(=O)(=O)c1ccc(F)cc1)C2` [Example 247, N-cyclopropyl-N-((4aS,6S)-4a-(4-(difluoromethyl)picolinoyl)-1-(4-fluorophenyl)-4,4a,5,6,7,8-hexahydro-1H-benzo[f]indazol-6-yl)-4-fluorobenzenesulfonamide], for which, in data set [1], the IC50 is at most 100 nM. Also, the inhibition at 5 min in data set [2] lay in the range of 50 to 75%.

The molecule `Cn1cc(S(=O)(=O)N(CC(F)(F)F)[C@H]2CCC3=Cc4c(cnn4-c4ccc(F)cc4)C[C@]3(C(=O)c3ncc(C(F)(F)F)s3)C2)cn1` [Example 250, N-((4aS,6S)-1-(4-fluorophenyl)-4a-(5-(trifluoromethyl)thiazole-2-carbonyl)-4,4a,5,6,7,8-hexahydro-1H-benzo[f]indazol-6-yl)-1-methyl-N-(2,2,2-trifluoroethyl)-1H-pyrazole-4-sulfonamide] came in with an IC50 in data set [1] of at most 100 nM. In addition, the inhibition at 5 min in data set [2] was in the range of 50 to 75%.

Regarding `Cn1ccc(S(=O)(=O)N(CC2(O)CC2)[C@H]2CCC3=Cc4c(cnn4-c4ccc(F)cc4)C[C@]3(C(=O)c3ncc(C(F)(F)F)s3)C2)n1` [Example 251, N-((4aS,6S)-1-(4-fluorophenyl)-4a-(5-(trifluoromethyl)thiazole-2-carbonyl)-4,4a,5,6,7,8-hexahydro-1H-benzo[f]indazol-6-yl)-N-((1-hydroxycyclopropyl)methyl)-1-methyl-1H-pyrazole-3-sulfonamide], the IC50 in data set [1] is at most 100 nM. In data set [2], this molecule came in with an inhibition at 5 min of 50 to 75%.

For `O=C(c1cc(F)ccn1)[C@]12Cc3cnn(-c4ccc(F)cc4)c3C=C1CC[C@H](N(CC1(O)CC1)S(=O)(=O)c1ccc(F)cc1)C2` [Example 254, 4-fluoro-N-((4aS,6S)-1-(4-fluorophenyl)-4a-(4-fluoropicolinoyl)-4,4a,5,6,7,8-hexahydro-1H-benzo[f]indazol-6-yl)-N-((1-hydroxycyclopropyl)methyl) benzenesulfonamide], the IC50 in data set [1] is at most 100 nM. Also, in data set [2], the inhibition at 5 min was 50 to 75%.

In turn, `Cn1ccc(S(=O)(=O)N(CC2(O)CC2)[C@H]2CCC3=Cc4c(cnn4-c4ccc(F)cc4)C[C@]3(C(=O)c3cc(F)ccn3)C2)n1` [Example 255, N-((4aS,6S)-1-(4-fluorophenyl)-4a-(4-fluoropicolinoyl)-4,4a,5,6,7,8-hexahydro-1H-benzo[f]indazol-6-yl)-N-((1-hydroxycyclopropyl)methyl)-1-methyl-1H-pyrazole-3-sulfonamide] yielded an IC50 in data set [1] of at most 100 nM. The molecule also returned an inhibition at 5 min in data set [2] of 50 to 75%.

In data set [1], `Cn1ccc(S(=O)(=O)N(CC2(O)CC2)[C@H]2CCC3=Cc4c(cnn4-c4ccc(F)cc4)C[C@]3(C(=O)c3cc(Cl)ccn3)C2)n1` [Example 257, N-((4aS,6S)-4a-(4-chloropicolinoyl)-1-(4-fluorophenyl)-4,4a,5,6,7,8-hexahydro-1H-benzo[f]indazol-6-yl)-N-((1-hydroxycyclopropyl)methyl)-1-methyl-1H-pyrazole-3-sulfonamide] had an IC50 of at most 100 nM. Moreover, the inhibition at 5 min in data set [2] lay in the range of 50 to 75%.

`Cn1ccc(S(=O)(=O)N(C2CC2)[C@H]2CCC3=Cc4c(cnn4-c4ccc(F)cc4)C[C@]3(C(=O)c3cc(C(F)F)ccn3)C2)n1` [Example 258, N-cyclopropyl-N-((4aS,6S)-4a-(4-(difluoromethyl)picolinoyl)-1-(4-fluorophenyl)-4,4a,5,6,7,8-hexahydro-1H-benzo[f]indazol-6-yl)-1-methyl-1H-pyrazole-3-sulfonamide] came in with an IC50 in data set [1] of at most 100 nM. For the same molecule, the inhibition at 5 min in data set [2] was 50 to 75%.

The molecule `Cn1ccc(S(=O)(=O)N(C2CC2)[C@H]2CCC3=Cc4c(cnn4-c4ccc(F)cc4)C[C@]3(C(=O)c3ncc(Cl)cn3)C2)n1` [Example 259, N-((4aS,6S)-4a-(5-chloropyrimidine-2-carbonyl)-1-(4-fluorophenyl)-4,4a,5,6,7,8-hexahydro-1H-benzo[f]indazol-6-yl)-N-cyclopropyl-1-methyl-1H-pyrazole-3-sulfonamide] gave an IC50 in data set [1] of at most 100 nM. For the same molecule, the inhibition at 5 min in data set [2] fell in the range of 25 to 50%.

In data set [1], `Cn1cc(S(=O)(=O)N(CC(F)(F)F)[C@H]2CCC3=Cc4c(cnn4-c4ccc(F)cc4)C[C@]3(C(=O)c3cc(F)ccn3)C2)cn1` [Example 260, N-((4aS,6S)-1-(4-fluorophenyl)-4a-(4-fluoropicolinoyl)-4,4a,5,6,7,8-hexahydro-1H-benzo[f]indazol-6-yl)-1-methyl-N-(2,2,2-trifluoroethyl)-1H-pyrazole-4-sulfonamide] registered an IC50 of at most 100 nM. The inhibition at 5 min in data set [2] lay in the range of 50 to 75%.

Molecule `Cn1ccnc1S(=O)(=O)N(C1CC1)[C@H]1CCC2=Cc3c(cnn3-c3ccc(F)cc3)C[C@]2(C(=O)c2cc(C(F)(F)F)ccn2)C1` [Example 261, N-cyclopropyl-N-((4aS,6S)-1-(4-fluorophenyl)-4a-(4-(trifluoromethyl)picolinoyl)-4,4a,5,6,7,8-hexahydro-1H-benzo[f]indazol-6-yl)-1-methyl-1H-imidazole-2-sulfonamide] yielded an IC50 in data set [1] of at most 100 nM. This molecule returned an inhibition at 5 min in data set [2] of 50 to 75%.

These data come from patent publication US20210122730A1, “GLUCOCORTICOID RECEPTOR MODULATORS” (ORIC Pharmaceuticals, Inc., priority 2017, published 2021).
